Laboratory results from patent US20150203517A1, “Prodrugs of Compounds that Enhance Antifungal Activity and Compositions of Said Prodrugs” (priority 2014, published 2015).
Where a name gives a salt, the structure may show the parent alone.

Key:
[1] = Saline solubility at 1.00 mg/mL and 0.50 mg/mL (with pH by indicator paper); assay type: physicochemical; conditions: for pH at 1.00 mg/mL of MGCD290 in saline: final concentration of hydroxamate 1 1.00 mg/mL, pH indicator paper; for solubility at 1 h: saline or isotonic, thermodynamic from solid, centrifuged, soluble = no precipitate formed
Protocol: Assays were performed to determine the saline solubility at 1.00 and 0.50 mg/ml and the stability of certain of the prodrug compounds of Examples 1-111. The following procedures were used.
Step 1. Sample preparation. An amount of the compound sample was precisely weighed to correspond to around 5 mg of the hydroxamate of compound 1, taking into account the mass of the leaving group and the salt factor if applicable. The sample was placed in a 16×125 mm glass screw cap tube. Saline was added so that the final concentration of hydroxamate 1 was 1.00 mg/mL. The pH was measured with pH indicator paper. The tube was shaken for 1 hour on a Vortex apparatus then centrifuged at 3000 rpm (1800 rcf) for 5 minutes. If the compound example was soluble (no precipitate formed) the procedure continued to step 2. If a precipitate formed then the sample was diluted with saline so that the final concentration of the hydroxamate of compound 1 was 0.50 mg/mL, and the shaking and centrifuging steps were repeated. If the compound example was soluble (no precipitate formed) the procedure continued to step 2. If a precipitate formed the sample was discarded. Step 2. HPLC analysis. A 500 μL aliquot of a sample solution prepared according to Step 1 was taken up into a 1.5 mL injection vial to which was added 500 μL of saline. The vial was shaken on a Vortex apparatus, injected into the HPLC instrument (UV detection, zero time point) and the retention time and purity of the sample compound were determined. The injection was repeated after 6 hours and 24 hours, and a comparison was made of the retention time, peak areas and level of degradation (if any) using the GDADI50 method.

[2] = Conversion of prodrugs to compound 1 in human plasma; assay type: in vitro ADME; conditions: human plasma (Na-Heparin treated), 37° C.
Protocol: (§1) Step 1. Sample preparation. A quantity of blank human plasma (Na-Heparin treated) was incubated at 37° C. for 30 minutes. An amount of the compound sample was precisely weighed to correspond to around 5.00 mg of the hydroxamate of compound 1, taking into account the mass of the leaving group and the salt factor if applicable. The sample was placed in a 16×125 mm glass screw cap tube. The incubated blank human plasma was added so that the final concentration of hydroxamate 1 was 1.00 mg/mL. The sample was sonicated for 30 seconds, shaken for 30 seconds on a Vortex apparatus, and run through the HPLC procedure of Step 2 to get a time point zero value. The samples were stored in an incubator at 37° C., and the HPLC analysis of Step 2 was repeated in 30 minutes and 1 hour.
(§2) Step 2. Protein precipitation and HPLC analysis of plasma. A 50 μL aliquot of plasma was taken in a 1.5 mL Eppendorf vial, to which was added 200 μL of MeCN. The vial was capped and shaken on a Vortex apparatus for 30 seconds, then centrifuged at 13000 rpm (15700 rcf) for five minutes. When centrifuging was complete, 100 μL of the supernatant was placed in an injection vial containing an insert, to which was added 100 μL of 0.1% formic acid in water. The vial was capped and shaken on a Vortex apparatus for 30 seconds, and the contents were injected into the HPLC-UV instrument, and a comparison was made of the retention time, peak areas and level of degradation (if any) using the GDADI50 method.
Step 3. Reference sample preparation. An amount of the compound sample was precisely weighed to correspond to around 5.00 mg of the hydroxamate of compound 1, taking into account the mass of the leaving group and the salt factor if applicable. The sample was placed in a 16×125 mm glass screw cap tube. A quantity of MeCN/H2O 50/50 v/v was added so that the final concentration of hydroxamate 1 was 1.00 mg/mL. An injection vial was filled with 100 μL of this sample stock solution and 900 μL of a solution of 40/60 MeCN/0.1% formic acid in water. The vial was capped and the contents were injected into the HPLC-UV instrument, and a comparison was made of the retention time, peak areas and level of degradation (if any) using the GDADI50 method.

[3] = Saline solubility at 10.00 mg/mL, 5.00 mg/mL and 2.50 mg/mL (with pH by pH meter); assay type: physicochemical; conditions: saline or isotonic, thermodynamic from solid, concentration expressed as equivalent of Cpd 1, highest tested concentration soluble, read-out: Highest prodrug solubility in saline (equivalent of Cpd 1)
Protocol: The following procedures were used
Step 1. Sample preparation. An amount of the compound sample was precisely weighed to correspond to around 10 mg of the hydroxamate of compound 1, taking into account the mass of the leaving group and the salt factor if applicable. The sample was placed in a 16×125 mm glass screw cap tube. Saline was added so that the final concentration of hydroxamate 1 was 10.00 mg/mL. The tube was shaken for 1 hour on a Vortex apparatus then centrifuged at 3000 rpm (1800 rcf) for 5 minutes. If the compound example was soluble (no precipitate formed) then the pH was measured with a pH meter, and the procedure continued to step 2. If a precipitate formed then the sample was diluted with saline so that the final concentration of the hydroxamate of compound 1 became 5.00 mg/mL, and the shaking and centrifuging steps were repeated. If the compound example was soluble (no precipitate formed) then the pH was measured with a pH meter, and the procedure continued to step 2. If a precipitate formed then the sample was diluted with saline so that the final concentration of the hydroxamate of compound 1 became 2.50 mg/mL, and the shaking and centrifuging steps were repeated. If the compound example was soluble (no precipitate formed) then the pH was measured with a pH meter, and the procedure continued to step 2

[4] = Conversion of prodrugs to compound 1 in mouse plasma; assay type: in vitro ADME; conditions: mouse plasma (Na-Heparin treated); for Prodrug loss at 0.5 hr / Prodrug loss at 1 hr: 37° C.; for Prodrug solubility in plasma: equivalent to 1.00 mg/mL of compound 1, * = Plasma quickly became cloudy
Protocol: as §1, with “blank mouse” for “blank human”, “repeated at” for “repeated in”, “1 hour” for “1 hour.”
as §2

[5] = 1.00 mg/mL as hydroxamate 1, shaken 1 hour, read-out: Soluble at 1.00 mg/mL of MGCD290 (Y/N)
[6] = 0.50 mg/mL as hydroxamate 1, shaken 1 hour, read-out: Soluble at 0.5 mg/mL of MGCD290 (Y/N)

| Compound | pH at 1.00 mg/mL of MGCD290 in saline [1] | solubility at 1 h [1, 5] [µg/mL] | Prodrug loss at 0.5 hr [2] [%] | Prodrug loss at 1 hr [2] [%] | solubility at 1 h [3] [µg/mL] | Prodrug loss at 0.5 hr [4] [%] | Prodrug loss at 1 hr [4] [%] | Prodrug solubility in plasma [4] | solubility at 1 h [1, 6] [µg/mL] |
| --- | --- | --- | --- | --- | --- | --- | --- | --- | --- |
| NCCCC[C@H](N)C(=O)NCCC(=O)ONC(=O)Cc1ccc(CCCCc2ccccc2)cc1 [Compound 14, (S)-2,6-Diamino-N-(3-oxo-3-(2-(4-(4-phenylbutyl)phenyl)acetamidooxy)propyl)hexanamide di-hydrochloride] | 4-4.5 | > 1000 | 100 | 100.0 | 10000 | 100 | 100 | Yes* | – |
| NCC1(C(=O)ONC(=O)Cc2ccc(CCCCc3ccccc3)cc2)CC1 [Compound 54, N-(1-(aminomethyl)cyclopropanecarbonyloxy)-2-(4-(4-phenylbutyl)phenyl)acetamide] | 4-4.5 | > 1000 | 50.9 | 71.6 | 2500 | 62.6 | 100 | Yes | – |
| COCCOCCOCC(=O)NCCCC[C@H](NC(=O)COCCOCCOC)C(=O)NCCC(=O)ONC(=O)Cc1ccc(CCCCc2ccccc2)cc1 [Compound 63, (S)—N,N′-(6-Oxo-6-(3-oxo-3-(2-(4-(4-phenylbutyl)phenyl)acetamidooxy)propylamino)hexane-1,5-diyl)bis(2-(2-(2-methoxyethoxyl)ethoxy)acetamide)] | – | > 1000 | 99.3 | 100.0 | 1000 | 100 | 100 | Yes* | – |
| COCCOCCOCC(=O)NCCCC[C@H](NC(=O)COCCOCCOC)C(=O)N(C)CCCC(=O)ONC(=O)Cc1ccc(CCCCc2ccccc2)cc1 [Compound 64, (S)—N,N′-(6-(Methyl(4-oxo-4-(2-(4-(4-phenylbutyl)phenyl)acetamidooxy)butyl)amino)-6-oxohexane-1,5-diyl)bis(2-(2-(2-methoxyethoxyl)ethoxy)acetamide)] | 4.5-5 | > 1000 | 78.7 | 100.0 | 10000 | 100 | 100 | Yes | – |
| COCCOCC(=O)NCCCC[C@H](NC(=O)COCCOC)C(=O)NCCC(=O)ONC(=O)Cc1ccc(CCCCc2ccccc2)cc1 [Compound 68] | 4.5-5 | > 1000 | 98.6 | 99.4 | 10000 | 100 | 100 | Yes* | – |
| COCCOCCOCCOCCOCCOCC(=O)N1CCC(C(=O)ONC(=O)Cc2ccc(CCCCc3ccccc3)cc2)CC1 [Compound 120] | 4.5-5 | > 1000 | – | – | – | 100 | 100 | Yes | – |
| CC(=O)OCC(=O)NCCCC[C@H](NC(=O)COC(C)=O)C(=O)NCCC(=O)ONC(=O)Cc1ccc(CCCCc2ccccc2)cc1 [Compound 154] | 4.5-5 | < 1000 | – | – | – | – | – | – | < 500 |
| COC(=O)NCCCC[C@H](NC(=O)OC)C(=O)NCCC(=O)ONC(=O)Cc1ccc(CCCCc2ccccc2)cc1 [Compound 155] | 4.5-5 | < 1000 | – | – | – | – | – | – | < 500 |
| COCCC(=O)NCCC[C@H](NC(=O)CCOC)C(=O)NCCC(=O)ONC(=O)Cc1ccc(CCCCc2ccccc2)cc1 [Compound 156] | 4.5-5 | < 1000 | – | – | – | – | – | – | < 500 |
| CC(=O)OCC(=O)NCCC[C@H](NC(=O)COC(C)=O)C(=O)NCCC(=O)ONC(=O)Cc1ccc(CCCCc2ccccc2)cc1 [Compound 157] | 4.5-5 | < 1000 | – | – | – | – | – | – | < 500 |
| COCCOCC(=O)NCCC[C@H](NC(=O)COCCOC)C(=O)NCCC(=O)ONC(=O)Cc1ccc(CCCCc2ccccc2)cc1 [Compound 158] | 4.5-5 | < 1000 | – | – | – | – | – | – | < 500 |
| COCCOCCOCC(=O)NCCC[C@H](NC(=O)COCCOCCOC)C(=O)NCCC(=O)ONC(=O)Cc1ccc(CCCCc2ccccc2)cc1 [Compound 159] | 4.5-5 | < 1000 | – | – | – | – | – | – | < 500 |
| COCCOCCOCCOCCOCC(=O)NCCC[C@H](NC(=O)COCCOCCOCCOCCOC)C(=O)NCCC(=O)ONC(=O)Cc1ccc(CCCCc2ccccc2)cc1 [Compound 160] | 4.5-5 | < 1000 | – | – | – | – | – | – | < 500 |
| COCCOCC(=O)NCCCC[C@H](NC(=O)COCCOC)C(=O)NCC1(C(=O)ONC(=O)Cc2ccc(CCCCc3ccccc3)cc2)CC1 [Compound 161] | 4.5-5 | < 1000 | – | – | – | – | – | – | < 500 |
| COCCOCCOCC(=O)NCCCC[C@H](NC(=O)COCCOCCOC)C(=O)NCC1(C(=O)ONC(=O)Cc2ccc(CCCCc3ccccc3)cc2)CC1 [Compound 162] | 4.5-5 | > 1000 | – | – | – | – | – | – | – |
| COCCOCC(=O)NCC[C@H](NC(=O)COCCOC)C(=O)NCCC(=O)ONC(=O)Cc1ccc(CCCCc2ccccc2)cc1 [Compound 163] | 4.5-5 | < 1000 | – | – | – | – | – | – | < 500 |
